{"source": "patent US4888287A", "about": "“Rapid differentiation of fungi from bacteria using polyene antibiotics” (Eastman Kodak Company, priority 1986, dated 1989)", "data": [{"experiment": "Reduction potential E1/2 of the quinone nucleus of RIND compounds (Table I)", "assay_type": "physicochemical", "conditions": "quinone nucleus with H in place of the releasing group; aqueous emulsion, DMF, nonionic surfactant, phosphate buffer pH 7; standard calomel electrode", "from_the_text": "(§1) Examples of such nuclei are presented below.\n(§2) Preferably, the E1/2 is from about +100 mV to about +400 mV as measured in water, or from about -650 to about -300 mV as measured in acetonitrile. […] Further details of measuring the E1/2 are described below prior to Table I. The desired E1/2 is achieved by appropriate electron withdrawing groups on the CAR-nucleus, or by a strained fused ring attached to the nucleus or by a combination of both.\n(§3) Representative RIND compounds are listed in Table I below in reference to the following structure: [drawing 3] The E1/2 values in Table I were determined for the quinone nucleus of this structure having a hydrogen atom in place of [drawing 4] The E1/2 values (where available) were measured in an aqueous emulsion of the quinone dissolved in N,N-dimethylformamide, a nonionic surfactant (for example, TRITON X-100) and sodium phosphate buffer (pH 7). A standard calomel electrode was used as a standard. Some E1/2 values (denoted by *) were measured in acetonitrile using a saturated calomel electrode as a standard. E1/2 values not available are denoted by \"NA\".", "values": [{"smiles": "CC(C1=C(CN(C)C(=O)Oc2ccc(N=Nc3ccc([N+](=O)[O-])cc3S(C)(=O)=O)c3c(NS(=O)(=O)c4cccc(S(N)(=O)=O)c4)cccc23)C(=O)C(C(C)c2ccc([N+](=O)[O-])cc2)=C(CN(C)C(=O)Oc2ccc(N=Nc3ccc([N+](=O)[O-])cc3S(C)(=O)=O)c3c(NS(=O)(=O)c4cccc(S(N)(=O)=O)c4)cccc23)C1=O)c1ccc([N+](=O)[O-])cc1", "note": "(stereo not shown) [II]", "E1/2": "+236 mV"}, {"smiles": "CN(CC1=C(c2ccc(C#N)cc2)C(=O)C2=C(CCCC2)C1=O)C(=O)Oc1ccc(N=Nc2ccc([N+](=O)[O-])cc2S(C)(=O)=O)c2c(NS(=O)(=O)c3cccc(S(N)(=O)=O)c3)cccc12", "note": "[IX]", "E1/2": "+220 mV"}, {"smiles": "CN(CC1=C(c2ccc(C(=O)O)cc2)C(=O)C2=C(CCCC2)C1=O)C(=O)Oc1ccc2c3c(cccc13)C(=O)C=C2", "note": "[RIND Compound XXXV]", "E1/2": "+220 mV"}, {"smiles": "CC(C)NS(=O)(=O)c1ccc(C2=C(CN(C)C(=O)Oc3ccc(N=Nc4ccc([N+](=O)[O-])cc4S(C)(=O)=O)c4c(NS(=O)(=O)c5cccc(S(N)(=O)=O)c5)cccc34)C(=O)C3=C(CCCC3)C2=O)cc1", "note": "[VIII]", "E1/2": "+212 mV"}, {"smiles": "CN(CC1=C(c2ccc([N+](=O)[O-])cc2)C(=O)C2=C(CCCC2)C1=O)C(=O)Oc1ccc(N=Nc2ccc([N+](=O)[O-])cc2S(C)(=O)=O)c2c(NS(=O)(=O)c3cccc(S(N)(=O)=O)c3)cccc12", "note": "[VII]", "E1/2": "+236 mV"}, {"smiles": "CN(CC1=C(c2ccccc2)C(=O)C2=C(CCCC2)C1=O)C(=O)Oc1ccc(N=Nc2ccc([N+](=O)[O-])cc2S(C)(=O)=O)c2c(NS(=O)(=O)c3cccc(S(N)(=O)=O)c3)cccc12", "note": "[VI]", "E1/2": "+180 mV"}, {"smiles": "CN(CC1=C(c2cccc([N+](=O)[O-])c2)C(=O)C2=C(CCCC2)C1=O)C(=O)Oc1ccc(N=Nc2ccc([N+](=O)[O-])cc2S(C)(=O)=O)c2c(NS(=O)(=O)c3cccc(S(N)(=O)=O)c3)cccc12", "note": "[V]", "E1/2": "+214 mV"}, {"smiles": "CC(=O)c1ccc(C2=C(CN(C)C(=O)Oc3ccc(N=Nc4ccc([N+](=O)[O-])cc4S(C)(=O)=O)c4c(NS(=O)(=O)c5cccc(S(N)(=O)=O)c5)cccc34)C(=O)C3=C(CCCC3)C2=O)cc1", "note": "[XIII]", "E1/2": "+212 mV"}, {"smiles": "CCCCCCCCCCC(=O)c1ccc(C2=C(CN(C)C(=O)Oc3ccc(N=Nc4ccc([N+](=O)[O-])cc4S(C)(=O)=O)c4c(NS(=O)(=O)c5cccc(S(N)(=O)=O)c5)cccc34)C(=O)C3=C(CCCC3)C2=O)cc1", "note": "[XII]", "E1/2": "+206 mV"}, {"smiles": "CN(CC1=C(c2ccc(Br)cc2)C(=O)C2=C(CCCC2)C1=O)C(=O)Oc1ccc(N=Nc2ccc([N+](=O)[O-])cc2S(C)(=O)=O)c2c(NS(=O)(=O)c3cccc(S(N)(=O)=O)c3)cccc12", "note": "[XIV]", "E1/2": "+192 mV"}, {"smiles": "CN(CC1=C(c2ccccc2)C(=O)C2=C(C1=O)C1C=CC2C1)C(=O)Oc1ccc(N=Nc2ccc([N+](=O)[O-])cc2S(C)(=O)=O)c2c(NS(=O)(=O)c3cccc(S(N)(=O)=O)c3)cccc12", "note": "(stereo not shown) [XIX]", "E1/2": "+242 mV"}, {"smiles": "CN(CC1=C(c2cc([N+](=O)[O-])cc([N+](=O)[O-])c2)C(=O)C2=C(CCCC2)C1=O)C(=O)Oc1ccc(N=Nc2ccc([N+](=O)[O-])cc2S(C)(=O)=O)c2c(NS(=O)(=O)c3cccc(S(N)(=O)=O)c3)cccc12", "note": "[XI]", "E1/2": "+186 mV"}, {"smiles": "CN(CC1=C(c2ccc(C#N)cc2)C(=O)C2=C(CC=CC2)C1=O)C(=O)Oc1ccc(N=Nc2ccc([N+](=O)[O-])cc2S(C)(=O)=O)c2c(NS(=O)(=O)c3cccc(S(N)(=O)=O)c3)cccc12", "note": "[XVII]", "E1/2": "+240 mV"}, {"smiles": "CCCCCCCCCCCCN(CC1=C(c2ccc(C#N)cc2)C(=O)C2=C(CCCC2)C1=O)C(=O)Oc1ccc(N=Nc2ccc([N+](=O)[O-])cc2S(C)(=O)=O)c2c(NS(=O)(=O)c3cccc(S(N)(=O)=O)c3)cccc12", "note": "[XVI]", "E1/2": "+220 mV"}, {"smiles": "CN(CC1=CC(=O)C2=C(CCCC2)C1=O)C(=O)Oc1ccc(N=Nc2ccc([N+](=O)[O-])cc2S(C)(=O)=O)c2c(NS(=O)(=O)c3cccc(S(N)(=O)=O)c3)cccc12", "note": "[XV]", "E1/2": "+213 mV"}, {"smiles": "Cc1cc(=O)oc2cc(OC(=O)N(C)CC3=C(c4cccc([N+](=O)[O-])c4)C(=O)C4=C(CCCC4)C3=O)ccc12", "note": "[XXIII]", "E1/2": "+214 mV"}, {"smiles": "CN(CC1=C(c2cc(Cl)ccc2Cl)C(=O)C2=C(CCC2)C1=O)C(=O)Oc1ccc(N=Nc2ccc([N+](=O)[O-])cc2S(C)(=O)=O)c2c(NS(=O)(=O)c3cccc(S(N)(=O)=O)c3)cccc12", "note": "[XXIV]", "E1/2": "+236 mV"}, {"smiles": "CN(CC1=C(c2ccc(C#N)cc2)C(=O)C2=C(CCCC2)C1=O)C(=O)Oc1ccc2c3c(cccc13)C(=O)C=C2", "note": "[XXIX]", "E1/2": "+220 mV"}, {"smiles": "CC1CCC(C)C2=C1C(=O)C(CN(C)C(=O)Oc1ccc(N=Nc3ccc([N+](=O)[O-])cc3S(C)(=O)=O)c3c(NS(=O)(=O)c4cccc(S(N)(=O)=O)c4)cccc13)=C(c1ccccc1)C2=O", "note": "(stereo not shown) [XXVII]", "E1/2": "+122 mV"}, {"smiles": "CCCCCCCCCCCCC1CC2=C(C1)C(=O)C(c1ccccc1)=C(CN(C)C(=O)Oc1ccc(N=Nc3ccc([N+](=O)[O-])cc3S(C)(=O)=O)c3c(NS(=O)(=O)c4cccc(S(N)(=O)=O)c4)cccc13)C2=O", "note": "(stereo not shown) [XXV]", "E1/2": "+222 mV"}, {"smiles": "CN(CC1=C(c2ccc([N+](=O)[O-])cc2)C(=O)C2=C(CCCC2)C1=O)C(=O)Oc1ccc2c3c(cccc13)C(=O)C=C2", "note": "[XXXIII]", "E1/2": "+236 mV"}, {"smiles": "CN(CC1=C(c2cccc([N+](=O)[O-])c2)C(=O)C2=C(CCCC2)C1=O)C(=O)Oc1ccc2c3c(cccc13)C(=O)C=C2", "note": "[XXXII]", "E1/2": "+214 mV"}, {"smiles": "CN(CC1=C(c2cc(Cl)ccc2Cl)C(=O)C2=C(CCC2)C1=O)C(=O)Oc1ccc2c3c(cccc13)C(=O)C=C2", "note": "[XXXI]", "E1/2": "+236 mV"}, {"smiles": "CC1=C(C)C(=O)C(c2ccccc2)=C(CN(C)C(=O)Oc2ccc(N=Nc3ccc([N+](=O)[O-])cc3S(C)(=O)=O)c3c(NS(=O)(=O)c4cccc(S(N)(=O)=O)c4)cccc23)C1=O", "note": "[XXXVI]", "E1/2": "+144 mV"}, {"smiles": "CN(CC1=C(c2ccccc2)C(=O)C2=C(CCC2)C1=O)C(=O)Oc1ccc2c3c(cccc13)C(=O)C=C2", "note": "[XXX]", "E1/2": "+222 mV"}, {"smiles": "CN(CC1=C(c2ccccc2)C(=O)C2=C(CCC2)C1=O)C(=O)Oc1ccc(N=Nc2ccc([N+](=O)[O-])cc2S(C)(=O)=O)c2c(NS(=O)(=O)c3cccc(S(N)(=O)=O)c3)cccc12", "note": "[XX]", "E1/2": "+222 mV"}, {"smiles": "COc1cccc(C2=C(CN(C)C(=O)Oc3ccc(N=Nc4ccc([N+](=O)[O-])cc4S(C)(=O)=O)c4c(NS(=O)(=O)c5cccc(S(N)(=O)=O)c5)cccc34)C(=O)C3=C(CCCC3)C2=O)c1", "note": "[X]", "E1/2": "+154 mV"}]}, {"experiment": "Reduction potential E1/2 of the quinone nucleus of RIND compounds (Table I)", "assay_type": "physicochemical", "conditions": "quinone nucleus with H in place of the releasing group; denoted *: measured in acetonitrile, saturated calomel electrode", "from_the_text": "as §1, §2, §3", "units": {"E1/2": "mV"}, "values": [{"smiles": "CN(CC1=C(c2ccccc2)C(=O)C(CN(C)C(=O)Oc2ccc(N=Nc3ccc([N+](=O)[O-])cc3S(C)(=O)=O)c3c(NS(=O)(=O)c4cccc(S(N)(=O)=O)c4)cccc23)=C(c2ccccc2)C1=O)C(=O)Oc1ccc(N=Nc2ccc([N+](=O)[O-])cc2S(C)(=O)=O)c2c(NS(=O)(=O)c3cccc(S(N)(=O)=O)c3)cccc12", "note": "[IV]", "E1/2": -460}, {"smiles": "CCCCCCCCCCNS(=O)(=O)c1ccc(C(C)C2=C(CN(C)C(=O)Oc3ccc(N=Nc4ccc([N+](=O)[O-])cc4S(C)(=O)=O)c4c(NS(=O)(=O)c5cccc(S(N)(=O)=O)c5)cccc34)C(=O)C(C(C)c3ccc(S(=O)(=O)NCCCCCCCCCC)cc3)=C(CN(C)C(=O)Oc3ccc(N=Nc4ccc([N+](=O)[O-])cc4S(C)(=O)=O)c4c(NS(=O)(=O)c5cccc(S(N)(=O)=O)c5)cccc34)C2=O)cc1", "note": "(stereo not shown) [I]", "E1/2": -528}, {"smiles": "CCCCCCCCCCNS(=O)(=O)c1ccc(C(C)C2=C(CN(C)C(=O)Oc3ccc4c(C)cc(=O)oc4c3)C(=O)C(C(C)c3ccc(S(=O)(=O)NCCCCCCCCCC)cc3)=C(CN(C)C(=O)Oc3ccc4c(C)cc(=O)oc4c3)C2=O)cc1", "note": "(stereo not shown) [XXII]", "E1/2": -528}, {"smiles": "CCCCCCCCCCNS(=O)(=O)c1ccc(C(C)C2=C(CN(C)C(=O)Oc3ccc(N=Nc4cccc(S(N)(=O)=O)c4)c4c(NS(C)(=O)=O)cccc34)C(=O)C(C(C)c3ccc(S(=O)(=O)NCCCCCCCCCC)cc3)=C(CN(C)C(=O)Oc3ccc(N=Nc4cccc(S(N)(=O)=O)c4)c4c(NS(C)(=O)=O)cccc34)C2=O)cc1", "note": "(stereo not shown) [XXI]", "E1/2": -528}]}]}
